For the test, the target named is LytA239–252 (Streptococcus pneumoniae, UniProt P06653). Description: near-UV CD titration, ellipticity at […] nm. It is filed as binding.

As a reminder, the Kd is the concentration at which binding is half-saturated. In turn, `C[N+](C)(C)CCO` [choline] yielded a Kd of 80 ± 10 mM.

(Values after paper PMC4471590 (Chemistry (Weinheim an Der Bergstrasse, Germany), 2015).)
